Tests used:
[1] = tested on: differentiated 3T3-L1 mouse adipocyte cells; test: Adipocyte glucose consumption in differentiated 3T3-L1 cells (colorimetric glucose assay of the medium); type: cell-based; conditions: 3T3-L1, 24 h, compound 10 μM, loss of glucose from culture medium, mean fold change (compound/DMSO)
Procedure, shortened: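 Differentiated 3T3-L1 mouse adipocytes (rosiglitazone/dexamethasone/IBMX/insulin induction, day 11) treated 24 h with compounds at 10 μM, 0.1% DMSO final. Medium glucose measured colorimetrically; consumption taken as glucose loss from medium versus cell-free control, expressed as mean fold change compound/DMSO ±SD.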

[2] = molecular target: T1, His6 tagged human recombinant FABP4 (Homo sapiens, UniProt P15090); test: FABP4 TR-FRET assay: displacement of fluorescent fatty acid BODIPY FL C12; conditions: inhibition of BODIPY FL C12 binding to His6-FABP4; 1.2 μL of 1.085 mM compound in DMSO per well; triplicates, mean percent inhibition
T1 construct: purchased Cayman Chemicals 10009549
Procedure, shortened: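 TR-FRET displacement of BODIPY FL C12 from His6-FABP4 bound by Tb-anti-His6 antibody, in Tris pH 7.4 buffer with γ-globulins, NP-40 and DTT; compound stock 1.085 mM in DMSO. Read after 10 min at room temperature as 520/615 nm ratio; mean % inhibition versus DMSO from triplicates.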

T1 sequence (P15090 whole entry): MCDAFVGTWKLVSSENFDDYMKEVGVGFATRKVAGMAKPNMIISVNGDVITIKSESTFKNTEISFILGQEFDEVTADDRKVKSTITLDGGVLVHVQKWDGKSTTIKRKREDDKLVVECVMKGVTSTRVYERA

Row | SMILES | fold induction at 10 µM [1] | inhibition at 1085 µM (stock) [2]
1 | CCCCc1ccc2nc(N(C)CC(=O)O)cc(-c3ccc(C#N)cc3)c2c1 [2-{[6-butyl-4-(4-cyanophenyl)quinolin-2-yl](methyl)amino}acetic acid] | 1.18 | 16.8%
2 | CCCCc1ccc2nc(N(C)CC(=O)O)cc(-c3ccc(F)cc3)c2c1 [2-{[6-butyl-4-(4-fluorophenyl)quinolin-2-yl](methyl)amino}acetic acid] | 1.49 | 58.6%
3 | CCCCc1ccc2nc(N(C)CC(=O)O)cc(-c3ccc(O)cc3)c2c1 [2-{[6-butyl-4-(4-hydroxyphenyl)quinolin-2-yl](methyl)amino}acetic acid] | 1.26 | 60.5%
4 | CCCCc1ccc2nc(N(C)CC(=O)O)cc(-c3ccc(C)cc3)c2c1 [2-{[6-butyl-4-(4-methylphenyl)quinolin-2-yl](methyl)amino}acetic acid] | 1.36 | 30.8%
5 | CCCCc1ccc2nc(N(C)CC(=O)O)cc(-c3cccnc3)c2c1 [2-{[6-butyl-4-(pyridin-3-yl)quinolin-2-yl](methyl)amino}acetic acid] | 1.19 | 39.2%
6 | CCCCc1ccc2nc(N(C)CC(=O)O)cc(-c3ccncc3)c2c1 [2-{[6-butyl-4-(pyridin-4-yl)quinolin-2-yl](methyl)amino}acetic acid] | 1.28 | 15%
7 | CCCCCCc1ccc2nc(N(C)CC(=O)O)c(C)c(N3CCOCC3)c2c1 [2-{[6-hexyl-3-methyl-4-(morpholin-4-yl)quinolin-2-yl](methyl)amino}acetic acid] | 1.17 | 93.8%
8 | CCCCCCc1ccc2nc(N(C)CC(=O)O)cc(N3CCOCC3)c2c1 [2-{[6-hexyl-4-(morpholin-4-yl)quinolin-2-yl](methyl)amino}acetic acid] | 1.31 | 26.5%
9 | CCCCCCc1ccc2nc(N(C)CC(=O)O)cc(-c3cccnc3)c2c1 [2-{[6-hexyl-4-(pyridin-3-yl)quinolin-2-yl](methyl)amino}acetic acid] | 1.28 | 71.3%
10 | CCCCCCc1ccc2nc(N(C)CC(=O)O)cc(Oc3cccnc3)c2c1 [2-{[6-hexyl-4-(pyridin-3-yloxy)quinolin-2-yl](methyl)amino}acetic acid] | 1.33 | 85%
11 | CCCCCCc1ccc2nc(N(C)CC(=O)O)cc(-c3ccncc3)c2c1 [2-{[6-hexyl-4-(pyridin-4-yl)quinolin-2-yl](methyl)amino}acetic acid] | 1.17 | 51.4%
12 | CCCCCCc1ccc2nc(OC(C)C(=O)O)cc(-c3ccncc3)c2c1 (stereo not shown) [2-{[6-hexyl-4-(pyridin-4-yl)quinolin-2-yl]oxy}propanoic acid] | 1.3 | 21%
13 | CCCCCCc1ccc2nc(N(C)CC(=O)O)cc(Oc3ccncc3)c2c1 [2-{[6-hexyl-4-(pyridin-4-yloxy)quinolin-2-yl](methyl)amino}acetic acid] | 1.02 | 10.7%
14 | CCCCCCc1ccc2nc(N(CC)CC(=O)O)cc(-c3ccc(F)cc3)c2c1 [2-{ethyl[4-(4-fluorophenyl)-6-hexylquinolin-2-yl]amino}acetic acid] | 1.27 | 78.3%
15 | CCCCCCCCc1ccc2nc(N(CC)CC(=O)O)cc(-c3ccc(F)cc3)c2c1 [2-{ethyl[4-(4-fluorophenyl)-6-octylquinolin-2-yl]amino}acetic acid] | 1.25 | 65.8%
16 | CCCCCOc1ccc2nc(N(C)CC(=O)O)cc(-c3ccccc3)c2c1 [2-{methyl [6-(pentyloxy)-4-phenylquinolin-2-yl]amino}acetic acid] | 1.27 | 102%
17 | CCCCCCCCc1ccc2nc(N(C)CC(=O)O)cc(Oc3cccnc3)c2c1 [2-{methyl [6-octyl-4-(pyridin-3-yloxy)quinolin-2-yl]amino}acetic acid] | 1.47 | 83.6%
18 | CCCCCCCCc1ccc2nc(N(C)CC(=O)O)cc(Oc3ccncc3)c2c1 [2-{methyl [6-octyl-4-(pyridin-4-yloxy)quinolin-2-yl]amino}acetic acid] | 1.14 | 19.4%
19 | CN(CC(=O)O)c1cc(-c2ccccc2)c2cc(CCc3ccnc4[nH]ccc34)ccc2n1 [2-{methyl[4-phenyl-6-(2-{1H-pyrrolo[2,3-b]pyridin-4-yl}ethyl)quinolin-2-yl]amino}acetic acid] | 1.26 | 29.8%

Row | SMILES | fold induction at 10 µM [1] | inhibition at 1085 µM (stock) [2]
20 | CN(CC(=O)O)c1cc(-c2ccccc2)c2cc(CCCc3ccccc3)ccc2n1 [2-{methyl[4-phenyl-6-(3-phenylpropyl)quinolin-2-yl]amino}acetic acid] | 1.31 | 97%
21 | CCCc1cccc(-c2ccc3nc(N(C)CC(=O)O)cc(-c4ccccc4)c3c2)c1 [2-{methyl[4-phenyl-6-(3-propylphenyl)quinolin-2-yl]amino}acetic acid] | 1.07 | 61.2%
22 | CCCCc1ccc2nc(N(C)CC(C)C(=O)O)cc(-c3ccccc3)c2c1 (stereo not shown) [3-[(6-butyl-4-phenylquinolin-2-yl)(methyl)amino]-2-methylpropanoic acid] | 1.34 | 74.7%
23 | CCCCc1ccc2nc(N(C)C(C)CC(=O)O)cc(-c3ccccc3)c2c1 (stereo not shown) [3-[(6-butyl-4-phenylquinolin-2-yl)(methyl)amino]butanoic acid] | 1.04 | 103%
24 | CCCCCCc1ccc2nc(N(C)CC(C)C(=O)O)cc(-c3ccccc3)c2c1 (stereo not shown) [3-[(6-hexyl-4-phenylquinolin-2-yl)(methyl)amino]-2-methylpropanoic acid] | 1.31 | 89.7%
25 | CCCCCCc1ccc2nc(N(C)CC(C)C(=O)O)cc(-c3cccc(C#N)c3)c2c1 (stereo not shown) [3-{[4-(3-cyanophenyl)-6-hexylquinolin-2-yl](methyl)amino}-2-methylpropanoic acid] | 1.3 | 56.5%
26 | CCCCCCc1ccc2nc(N(C)C(C)CC(=O)O)cc(-c3cccc(C#N)c3)c2c1 (stereo not shown) [3-{[4-(3-cyanophenyl)-6-hexylquinolin-2-yl](methyl)amino}butanoic acid] | 1.03 | 77.9%
27 | CCCCCCc1ccc2nc(N(C)CC(C)C(=O)O)cc(-c3ccc(F)cc3)c2c1 (stereo not shown) [3-{[4-(4-fluorophenyl)-6-hexylquinolin-2-yl](methyl)amino}-2-methylpropanoic acid] | 1.31 | 92.3%
28 | CCCCc1ccc2nc(N(C)CC(C)C(=O)O)cc(-c3cccc(C#N)c3)c2c1 (stereo not shown) [3-{[6-butyl-4-(3-cyanophenyl)quinolin-2-yl](methyl)amino}-2-methylpropanoic acid] | 1.21 | 38.7%
29 | CCCCc1ccc2nc(N(C)CC(C)C(=O)O)cc(-c3ccc(F)cc3)c2c1 (stereo not shown) [3-{[6-butyl-4-(4-fluorophenyl)quinolin-2-yl](methyl)amino}-2-methylpropanoic acid] | 1.34 | 74%
30 | CCCCc1ccc2nc(N(C)CC(C)C(=O)O)cc(-c3cccnc3)c2c1 (stereo not shown) [3-{[6-butyl-4-(pyridin-3-yl)quinolin-2-yl](methyl)amino}-2-methylpropanoic acid] | 1.13 | 46.4%
31 | CCCCCCc1ccc2nc(N(C)CC(C)C(=O)O)cc(-c3cccnc3)c2c1 (stereo not shown) [3-{[6-hexyl-4-(pyridin-3-yl)quinolin-2-yl](methyl)amino}-2-methylpropanoic acid] | 1.16 | 54.7%
32 | CCCCc1ccc2nc(N3CCOC(C(=O)O)C3)cc(-c3ccccc3)c2c1 (stereo not shown) [4-(6-butyl-4-phenylquinolin-2-yl)morpholine-2-carboxylic acid] | 1.07 | 21.1%
33 | CCCCCCc1ccc2nc(N3CCOC(C(=O)O)C3)cc(-c3ccccc3)c2c1 (stereo not shown) [4-(6-hexyl-4-phenylquinolin-2-yl)morpholine-2-carboxylic acid] | 1.22 | 36.1%
34 | CC(C)(c1cc(-c2ccccc2)c2cc(CCc3ccccc3)ccc2n1)c1nnn[nH]1 [4-phenyl-6-(2-phenylethyl)-2-[2-(1H-1,2,3,4-tetrazol-5-yl)propan-2-yl]quinoline] | 1.2 | 75%
35 | O=C(O)C1CC(=O)N(c2cc(-c3ccccc3)c3cc(CCc4ccccc4)ccc3n2)C1 (stereo not shown) [5-oxo-1-[4-phenyl-6-(2-phenylethyl)quinolin-2-yl]pyrrolidine-3-carboxylic acid] | 1.24 | 7.89%
36 | O=C1NC(=O)C(Cc2cc(-c3ccccc3)c3cc(CCc4ccccc4)ccc3n2)S1 (stereo not shown) [5-{[4-phenyl-6-(2-phenylethyl)quinolin-2-yl]methyl}-1,3-thiazolidine-2,4-dione] | 1.45 | 73.5%
37 | CCCCc1ccc2nc(OCC(=O)O)c(C(=O)O)c(-c3ccccc3)c2c1 [6-butyl-2-(carboxymethoxy)-4-phenylquinoline-3-carboxylic acid] | 0.99 | 44.6%
38 | CCCCc1ccc2nc(N3CCCCC3)cc(-c3ccccc3)c2c1 [6-butyl-4-phenyl-2-(piperidin-1-yl)quinoline] | 0.99 | 56.5%

From patent publication US20230183179A1, “NOVEL CELL METABOLISM MODULATING COMPOUNDS AND USES THEREOF” (CRESCENTA BIOSCIENCES, priority 2020, published 2023)
